Laboratory results: patent publication US11091444B2, “Hydantoins that modulate BACE-mediated app processing” (BUCK INSTITUTE FOR RESEARCH ON AGING, priority 2013, dated 2021)
Read-outs that look alike come from different tables or passages of the source.

Experiments:
sAPP alpha = experiment: Secondary screen: sAPP alpha; type: cell-based; conditions: for sAPP alpha: increase (↑); for sAPP (α/β): increase (↑) of ratio
sAPP beta = experiment: Secondary screen: sAPP beta; type: cell-based; conditions: decrease (↓)
TRX-eAPP575-624 = TRX-eAPP575-624 (Homo sapiens (Human), UniProt P05067); experiment: SPR (Biacore) binding to APP ectodomain fragment
TRX-eAPP575-624, sequence (P05067 650-699): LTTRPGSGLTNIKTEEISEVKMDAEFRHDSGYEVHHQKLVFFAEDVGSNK
Method: The binding affinity of the compounds for the ectodomain of APP was determined using SPR. […] The eAPP was crosslinked linked to the CM5 Biacore chips (GE Healthcare).
FC1 served as a reference cell following a mock immobilization with buffer alone. For all cells, the flow rate was 10 al per min. The chip was blocked with 1M ethanolamine (pH 8.5). […] Binding traces were recorded for each dilution with a binding phase of 60 seconds and a dissociation phase of 240 seconds. Each cycle was performed at 20° C. with a constant flow rate of 20 l/min. An additional 240 seconds of buffer flow at 60 al per min across the cells was applied as a regeneration phase to facilitate complete dissociation of the compound from the protein. The sensograms were obtained by subtraction of the reference and buffer signals using the Biacore T100 Evaluation software. The binding curves were modeled with the PRISM (Graphpad Inc).

Aβ1-42 = Aβ1-42 ELISA in SH-SY5Y neuroblastoma cells; type: cell-based, human; conditions: for IC50: Homo sapiens, SH-SY5Y, secondary screen
Method: SH-SY5Y neuroblastoma cells were seeded at 50,000 cells/well in a 96 wells plate for 24 h. Then their medium was changed for fresh medium supplemented with desired concentration of the hydantoin compound (e.g. compound 3). After 24 h, 20 al of the medium was added to 2 al of the complete protease inhibitor with 1 μM EDTA and kept at 4° C. until analysis using the ELISA assay below.
ELISA kits from Invitrogen were also used to quantify Aβ1-42 (KHB3544) in duplicate. For the Aβ 1-42 ultrasensitive ELISA, samples were diluted 1:2 (50 al CSF plus 50 μl kit-provided standard diluent buffer). Assays were performed according to manufacturer's instructions. In short, standards and samples were added to a plate pre-coated with a monoclonal capture antibody specific for the amino terminus of Hu Aβ. The samples were co-incubated with a rabbit detection antibody (Ab) specific for the carboxy terminus of the Aβ species being assayed for 3 hr at room temperature overnight at 4° (Aβ 1-42) with gentle rocking. After washing, bound rabbit Ab was detected using a horseradish peroxidase-labeled anti-rabbit secondary Ab. After washing again, bound HRP-anti rabbit Ab was detected colorimetrically (Spectramax 190, Molecular Devices) by the addition of a substrate solution. 1 mM 4-(2-Aminoethyl) benzenesulfonyl fluoride hydrochloride (AEBSF) protease inhibitor (101500, Calbiochem) was added to standards and samples.

Aβ42 = experiment: Aβ lowering in NTg mice; type: in vivo; conditions: 1 mpk
Method: Compound 2 and other hydantoins were produced (see, e.g., compounds 1-5 pharmacokinetic evaluation of these hydantoins was determined in brain uptake assays using NTg mice (see, e.g., Table 1). It was also determined that Compound 1 lowered Aβ42 in the same animals at 5 mpk, while compound 3 lowered Aβ at 1 mpk.

NRG1-BACE1 = NRG1-BACE1 (Homo sapiens (Human), UniProt P56817); experiment: NRG1-BACE cleavage in transfected HEK 293 cells (SEAP/lacZ); type: cell-based
NRG1-BACE1, sequence (P56817 46-501): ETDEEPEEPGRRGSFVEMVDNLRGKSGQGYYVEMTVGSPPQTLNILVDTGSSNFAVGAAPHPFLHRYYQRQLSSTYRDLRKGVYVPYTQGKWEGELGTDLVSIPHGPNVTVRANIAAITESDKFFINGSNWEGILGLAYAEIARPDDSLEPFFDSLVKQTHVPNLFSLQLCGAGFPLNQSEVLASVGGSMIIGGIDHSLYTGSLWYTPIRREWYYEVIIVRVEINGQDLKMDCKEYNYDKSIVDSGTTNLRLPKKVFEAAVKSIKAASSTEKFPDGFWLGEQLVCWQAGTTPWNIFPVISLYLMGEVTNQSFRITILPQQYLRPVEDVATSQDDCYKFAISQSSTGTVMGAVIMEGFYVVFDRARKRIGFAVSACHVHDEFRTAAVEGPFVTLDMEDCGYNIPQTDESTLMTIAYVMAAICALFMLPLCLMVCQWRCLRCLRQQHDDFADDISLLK
Method: (§1) Briefly, in order to determine the PSGL-1-BACE1 IC50 IC50 HEK 293 cells were plated in 24 well plates and transiently cotransfected with either PSGL1/lacZ or NRG1/lacZ constructs using Lipofectamine 2000; manufacturer protocol was followed. Two hours after adding the DNA-lipid complex to the cells a BACE inhibitor was added to each well, then cells were incubated overnight at 37° C. and 5% CO2. Cultured medium was collected to determine NRG1 or PSGL1, and cells were lysed to measure lacZ levels. Sigma SEAP kit standard protocol was conducted on the cultured medium to detect levels of PSGL1 or NRG1. Promega kit instructions were followed to determine lacZ concentration. The ratio of PSGL1/lacz vs [BACE inhibitor] or were plotted to determine the BACE1-IC50 on each of the substrate using GraphPad Prism 5 (FIG. 6B).

PSGL-1-BACE1 = PSGL-1-BACE1 (Homo sapiens (Human), UniProt P56817); experiment: PSGL1-BACE cleavage in transfected HEK 293 cells (SEAP/lacZ); type: cell-based; conditions: APP-BACE vs PSGL1-BACE cleavage
PSGL-1-BACE1, sequence (P56817 46-501): as above
Method: as §1

Cc1cccc(C2(c3ccc(OC(F)F)c(C)c3)N=C(N)N(C)C2=O)c1 (stereo not drawn) [FAH-27, 2-amino-4-(4-(difluoromethoxy)-3-methylphenyl)-1-methyl-4-(m-tolyl)-1H-imidazol-5(4H)-one]
sAPP alpha (sAPP alpha): ↑ > 30%
sAPP (α/β) (sAPP alpha): ↑ > 100%
sAPP beta (sAPP beta): ↓ < 30%

Cc1cc(C2(c3cccc(C(F)(F)F)c3)N=C(N)N(C)C2=O)ccc1OC(F)F (stereo not drawn) [FAH-28]
sAPP alpha (sAPP alpha): ↑ > 20%
sAPP (α/β) (sAPP alpha): ↑ > 50%
sAPP beta (sAPP beta): ↓ < 20%

Cc1cc(C2(c3cccc(Cl)c3)N=C(N)N(C)C2=O)ccc1OC(F)F (stereo not drawn) [FAH-23, 2-amino-4-(3-chlorophenyl)-4-(4-(difluoromethoxy)-3-methylphenyl)-1-methyl-1H-imidazol-5(4H)-one]
sAPP alpha (sAPP alpha): ↑ > 20%
sAPP (α/β) (sAPP alpha): ↑ > 50%
sAPP beta (sAPP beta): ↓ < 20%

Cc1cc(F)cc(C2(c3ccc(OC(F)F)c(C)c3)N=C(N)N(C)C2=O)c1 (stereo not drawn) [FAH-22, 2-amino-4-(4-(difluoromethoxy)-3-methylphenyl)-4-(3-fluoro-5-methylphenyl)-1-methyl-1H-imidazol-5(4H)-one]
sAPP alpha (sAPP alpha): ↑ > 10%
sAPP (α/β) (sAPP alpha): ↑≈50%
sAPP beta (sAPP beta): ↓ < 20%

Cc1cc(C2(c3cc(F)cc(F)c3)N=C(N)N(C)C2=O)ccc1OC(F)F (stereo not drawn) [FAH-3, 2-amino-4-(4-(difluoromethoxy)-3-methylphenyl)-4-(3,5-difluorophenyl)-1-methyl-1H-imidazol-5(4H)-one]
Kd (TRX-eAPP575-624; Table 1, SPR, read-out: APP binding Kd): 300 nM
sAPP alpha (sAPP alpha): ↑ > 10%
sAPP (α/β) (sAPP alpha): ↑≈10%
sAPP beta (sAPP beta): ↓ < 20%
IC50 (Aβ1-42): > 1000 nM
Inhibition of Aβ / Aβ42 production (Aβ1-42; SH-SY5Y cells): inhibition of Aβ production
Aβ lowering in vivo (Aβ42): lowered Aβ

CN1C(=O)C(c2ccccc2)(c2cc(F)cc(F)c2)N=C1N (stereo not drawn) [FAH-1]
Kd (TRX-eAPP575-624): 5000 nM

Cc1cc(C2(c3cccc(F)c3)N=C(N)N(C)C2=O)ccc1OC(F)F (stereo not drawn) [FAH-17, 2-amino-4-(4-(difluoromethoxy)-3-methylphenyl)-4-(3-fluorophenyl)-1-methyl-1H-imidazol-5(4H)-one]
sAPP alpha (sAPP alpha): ↑ > 20%
sAPP (α/β) (sAPP alpha): ↑ > 100%
sAPP beta (sAPP beta): ↓ < 50%
IC50 (Aβ1-42): > 1000 nM
Selectivity for APP over NRG1 (NRG1-BACE1; APP-BACE vs NRG1-BACE cleavage): > 10 fold
IC50 (NRG1-BACE1; secondary screen, read-out: NRG1-BACD1 IC50): > 1000 nM
Selectivity for APP over PSGL1 (PSGL-1-BACE1): > 200 fold
